The subject of this assay is BDF1 mice, Adenocarcinoma 755 s.c., tumor weight T/C. Briefly: NCI In Vivo Anticancer Drug Screen. Data for tumor model Adenocarcinoma 755 (subcutaneous) in B6D2F1 (BDF1) mice. As to conditions: endpoint: mean tumor weight, schedule: Q01DX011 (ip), higher = larger tumour. How it is done: The antitumor activity of compounds was measured in mice bearing transplantable tumors. Survival or tumor size were measured and the results are expressed as the measurement made in the treated group (T) divided by the measurement made in the vehicle treated control group (C). The tumor model used in this assay is Adenocarcinoma 755 (subcutaneous) in B6D2F1 (BDF1) mice

Where [1] appears, read: dose: 50.0 mg/kg/injection, vehicle: saline.
[2] abbreviates: dose: 100.0 mg/kg/injection, vehicle: saline.
Setting [3] is: dose: 3.1 mg/kg/injection, vehicle: methylcellulose (MC).
Where [4] appears, read: dose: 12.5 mg/kg/injection, vehicle: methylcellulose (MC).
[5] abbreviates: dose: 25.0 mg/kg/injection, vehicle: methylcellulose (MC).
Where [6] appears, read: dose: 6.25 mg/kg/injection, vehicle: methylcellulose (MC).

From PubChem BioAssay AID180 (DTP/NCI, 2004) come the findings set out here.

“And” between values parts separate entries of the source, which are not always exact repeats. Identical values can stand only once.

Take `O=[N+]([O-])c1ccc(O)c([N+](=O)[O-])c1`: the T/C – broadly, the ratio of treated to control – reads like this: (dose: 3.35 mg/kg/injection, vehicle: carboxymethylcellulose (CMC)) 60 % of control; (dose: 3.92 mg/kg/injection, vehicle: carboxymethylcellulose (CMC)) 57 % of control; (dose: 6.7 mg/kg/injection, vehicle: carboxymethylcellulose (CMC)) 92 % of control; (dose: 7.85 mg/kg/injection, vehicle: carboxymethylcellulose (CMC)) 54 % of control; (dose: 13.4 mg/kg/injection, vehicle: carboxymethylcellulose (CMC)) 64 % of control; (dose: 15.7 mg/kg/injection, vehicle: carboxymethylcellulose (CMC)) 53 % of control. Besides, the T/C (dose: 26.8 mg/kg/injection, vehicle: carboxymethylcellulose (CMC)) is 91 % of control and the T/C (dose: 31.4 mg/kg/injection, vehicle: carboxymethylcellulose (CMC)) was 78 % of control.

Turning to `COC1C(OC(N)=O)C(O)C(Oc2ccc3c(O)c(NC(=O)c4ccc(O)c(CC=C(C)C)c4)c(=O)oc3c2C)OC1(C)C` (stereo not given), the T/C runs as follows: under setting [1], 78 % of control; under setting [2], 42 % of control; (dose: 200.0 mg/kg/injection, vehicle: saline) 60 % of control.

Regarding `Nc1nc(SCc2ccc(F)cc2)c2ncn(C3OC(CO)C(O)C3O)c2n1` (stereo not given), the T/C is, setting by setting: under setting [3], 86 % of control; (dose: 6.2 mg/kg/injection, vehicle: methylcellulose (MC)) 59 % of control; under setting [4], 19 % of control; under setting [5], 11 % of control.

Take `O=C(O)c1cccc2c3c(cc([N+](=O)[O-])c12)CCCC3`: the T/C runs as follows: (dose: 0.18 mg/kg/injection, vehicle: carboxymethylcellulose (CMC)) 101 % of control; (dose: 0.37 mg/kg/injection, vehicle: carboxymethylcellulose (CMC)) 97 % of control; (dose: 1.5 mg/kg/injection, vehicle: carboxymethylcellulose (CMC)) 85 % of control.

Regarding `Clc1ccc(N2CCN(CCCN3CCN(c4cccc(Cl)c4)CC3)CC2)cc1`, the T/C runs as follows: (dose: 5.0 mg/kg/injection, vehicle: methylcellulose (MC)) 71 % of control; (dose: 8.0 mg/kg/injection, vehicle: carboxymethylcellulose (CMC)) 83 % of control; (dose: 10.0 mg/kg/injection, vehicle: methylcellulose (MC)) 62 % of control and 72 % of control; (dose: 12.0 mg/kg/injection, vehicle: carboxymethylcellulose (CMC)) 103 % of control; (dose: 18.0 mg/kg/injection, vehicle: carboxymethylcellulose (CMC)) 40 % of control; (dose: 20.0 mg/kg/injection, vehicle: methylcellulose (MC)) 65 % of control. Further, the T/C runs as follows: (dose: 27.0 mg/kg/injection, vehicle: carboxymethylcellulose (CMC)) 46 % of control; (dose: 30.0 mg/kg/injection, vehicle: carboxymethylcellulose (CMC)) 47 % of control; (dose: 40.0 mg/kg/injection, vehicle: methylcellulose (MC)) 25 % of control; (dose: 60.0 mg/kg/injection, vehicle: carboxymethylcellulose (CMC)) 26 % of control.

`O=Cc1ccccc1`: the T/C by setting is: (dose: 3.12 mg/kg/injection, vehicle: Klucel (hydroxypropylcellulose) (HPC)) 80 % of control; (dose: 6.25 mg/kg/injection, vehicle: Klucel (hydroxypropylcellulose) (HPC)) 52 % of control; (dose: 12.5 mg/kg/injection, vehicle: Klucel (hydroxypropylcellulose) (HPC)) 72 % of control; (dose: 25.0 mg/kg/injection, vehicle: Klucel (hydroxypropylcellulose) (HPC)) 109 % of control; (dose: 50.0 mg/kg/injection, vehicle: Klucel (hydroxypropylcellulose) (HPC)) 106 % of control; (dose: 100.0 mg/kg/injection, vehicle: Klucel (hydroxypropylcellulose) (HPC)) 80 % of control. Moreover, the T/C (dose: 200.0 mg/kg/injection, vehicle: Klucel (hydroxypropylcellulose) (HPC)) was 55 % of control and the T/C (dose: 400.0 mg/kg/injection, vehicle: Klucel (hydroxypropylcellulose) (HPC)) is 56 % of control.

In the case of `CCCn1cnc2c(SCc3ccccc3F)nc(N)nc21`, the T/C was 22 % of control under setting [3]; 11 % of control under setting [6]; 1 % of control and 5 % of control under setting [4].

Consider `CCCNc1ncnc2c1cnn2C1CCCCO1` (stereo not given), for which the T/C is 67 % of control (dose: 3.12 mg/kg/injection, vehicle: methylcellulose (MC)); 54 % of control under setting [6]; 44 % of control under setting [4].

`Cc1ncc(CO)c(C)c1O`: the T/C runs as follows: (dose: 12.5 mg/kg/injection, vehicle: saline) 48 % of control; (dose: 22.78 mg/kg/injection, vehicle: carboxymethylcellulose (CMC)) 81 % of control; under setting [5], 98 % of control; (dose: 25.0 mg/kg/injection, vehicle: saline) 45 % of control; (dose: 45.57 mg/kg/injection, vehicle: carboxymethylcellulose (CMC)) 70 % of control; (dose: 50.0 mg/kg/injection, vehicle: methylcellulose (MC)) 75 % of control. The T/C runs as follows: under setting [1], 54 % of control; (dose: 59.07 mg/kg/injection, vehicle: carboxymethylcellulose (CMC)) 107 % of control; (dose: 75.0 mg/kg/injection, vehicle: saline) 50 % of control; (dose: 91.15 mg/kg/injection, vehicle: carboxymethylcellulose (CMC)) 76 % of control; (dose: 100.0 mg/kg/injection, vehicle: methylcellulose (MC)) 71 % of control; under setting [2], 22 % of control. Also, the T/C is, setting by setting: (dose: 118.15 mg/kg/injection, vehicle: carboxymethylcellulose (CMC)) 108 % of control; (dose: 125.0 mg/kg/injection, vehicle: methylcellulose (MC)) 48 % of control; (dose: 150.0 mg/kg/injection, vehicle: saline) 30 % of control; (dose: 182.3 mg/kg/injection, vehicle: carboxymethylcellulose (CMC)) 72 % of control; (dose: 200.0 mg/kg/injection, vehicle: methylcellulose (MC)) 70 % of control; (dose: 236.3 mg/kg/injection, vehicle: carboxymethylcellulose (CMC)) 55 % of control.
